Experimental data published in US20140127144A1, “Flavour Modifying Compounds” (Givaudan S. A., priority 2011, published 2014).

Tests used:
[1] = Expert panel tasting, application on Bechamel sauce with cheese; assay type: in vivo, people; conditions: for taste description of mixture B compared to mixture A, effect assigned to the compound: 150-300 ppm N-acetyl-DL-glutamic acid plus 50-200 ppm N-formyl-glycine together in Bechamel sauce with cheese, panel of 5
Procedure: Mixture A: A Bechamel sauce with cheese was prepared by heating up 25 g of wheat flour in 35 g of butter in a saucepan. Let the flour cook shortly. Add 500 g milk, 2.5 g table salt, 0.15 g MSG, 0.075 g nutmeg powder, 0.125 g black pepper and 40 g of cheese powder. Boil the mixture for one minute. Mixture B: The same as mixture A plus 150-300 ppm N-acetyl-DL-glutamic acid plus 50-200 ppm N-formyl-glycine.

[2] = Expert panel tasting in aqueous solution of 0.5% NaCl; assay type: in vivo, people; conditions: panel of 5
Description: Mixture A: An aqueous solution of 0.5% NaCl Mixture B: The same as A plus 10 ppm N-formyl-DL-phenylalanine Mixture A: An aqueous solution of 0.5% NaCl Mixture B: The same as A plus 50 ppm of N-acetyl-L-isoleucine Mixture A: An aqueous solution of 0.5% NaCl Mixture B: The same as A plus 10 ppm N-acetyl-DL-valine

[3] = Expert panel tasting in aqueous solution of 0.5% NaCl and 0.03% MSG; assay type: in vivo, people; conditions: panel of 5
Description: Mixture C: An aqueous solution of 0.5% NaCl and 0.03% MSG.
Mixture D: The same as C plus 10 ppm N-formyl-DL-phenylalanine.
Mixture C: An aquesous solution of 0.5% NaCL and 0.03% MSG
Mixture D: The same as C plus 50 ppm of N-acetyl-L-isoleucine
Mixture A: An aqueous solution of 0.5% NaCl and 0.03% of MSG.
Mixture B: The same as A plus 25 ppm N-formyl-L-lysine
Mixture C: An aqueous solution of 0.5% NaCl and 0.03% MSG (Mono sodium glutamate)
Mixture D: The same as C plus 75 ppm of N-acetlyl DL-valine

[4] = Expert panel tasting, application on soy sauce; assay type: in vivo, people; conditions: for taste description of mixture B compared to mixture A, effect assigned to the compound: 150-300 ppm N-acetyl-DL-glutamic acid plus 50-200 ppm N-formyl-glycine together in 5% soy sauce, panel of 5
Description: Mixture A: 5% of a standard soy sauce in water, Mixture B: Same as mixture A plus 150-300 ppm N-acetyl-DL-glutamic acid plus 50-200 ppm N-formyl-glycine. […] This effect could be assigned to N-acetyl glutamic acid.

[5] = Panel of experienced tasters, cream cheese; assay type: in vivo, people; conditions: 150 ppm in cream cheese; panel of 8
Description: 150 ppm of N-acetyl glutamic acid was thoroughly mixed into Philadelphia brand cream cheese. This product was tasted and compared with the original cream cheese by a panel of experienced tasters consisting of 8 people (5 men, 3 women aged 35-54).

[6] = Panel of experienced tasters, salad dressing; assay type: in vivo, people; conditions: 100 ppm in salad dressing; panel of 8
Procedure: 100 ppm of N-acetyl glutamic acid was dissolved in a common salad dressing (Remia met magere yoghurt). This product was tasted and compared with the original salad dressing by a panel of experienced tasters consisting of 8 people (5 men, 3 women aged 35-54).

[7] = Panel of experienced tasters, cooking oil; assay type: in vivo, people; conditions: 200 ppm in cooking oil; panel of 8
Procedure: 200 ppm of N-acetyl glutamic acid was dissolved in a common cooking oil (Becel kitchen). This product was tasted and compared with the original cooking oil by a panel of experienced tasters consisting of 8 people (5 men, 3 women aged 35-54).

[8] = Panel of experienced tasters, hamburgers; assay type: in vivo, people; conditions: 150 ppm in hamburgers, baked; panel of 8
Procedure: Hamburgers were prepared from 80% lean beef and 20% fat beef meat containing 0.5% salt, 0.15% black pepper and 0.15% onion powder and 150 ppm of N-acetyl glutamic acid. The hamburgers were baked without additional fat and compared with the same batch of meat to which no N-acetyl glutamic acid was added. This product was tasted and compared with the original hamburgers by a panel of experienced tasters consisting of 8 people (5 men, 3 women aged 35-54).

[9] = Panel of experienced tasters, instant mashed potato; assay type: in vivo, people; conditions: 150 ppm in mashed potato; panel of 8
Procedure: A standard instant mashed potato powder (Albert Heijn huismerk) was prepared and mixed with 150 ppm of N-acetyl glutamic acid. This product was tasted and compared with the original mashed potatoes by a panel of experienced tasters consisting of 8 people (5 men, 3 women aged 35-54).

[10] = Panel of experienced tasters, potato chips with cheese sour cream flavour; assay type: in vivo, people; conditions: amount not given, panel of 8
Procedure: Potato chips were prepared in house. A cheese sour cream flavour was prepared by mixing salt (1.5 weight % on the chips), MSG (0.05), whey powder (2.5), cheese powder (1.5), cream powder (0.2), buttermilk powder (0.4) and onion powder (0.2) The powder was applied on plain potato chips. This product was tasted and compared with the chips without N—Ac—Glu by a panel of experienced tasters consisting of 8 people (5 men, 3 women aged 35-54).

[11] = Panel of experienced tasters, tomato soup; assay type: in vivo, people; conditions: 100 ppm in tomato soup; panel of 8
Procedure: To a standard tomato soup (Albert Heijn huismerk) was added 100 ppm of N-acetyl glutamic acid. This product was tasted and compared with the original tomato soup by a panel of experienced tasters consisting of 8 people (5 men, 3 women aged 35-54).

[12] = Panel of experienced tasters, cola; assay type: in vivo, people; conditions: 100 ppm in cola; panel of 8
Procedure: To a standard cola (Pepsi or Coke cola) was added 100 ppm of N-acetyl glutamic acid. This product was tasted and compared with the original colas by a panel of experienced tasters consisting of 8 people (5 men, 3 women aged 35-54).

[13] = Panel of experienced tasters, soy milk; assay type: in vivo, people; conditions: 100 ppm in soy milk; panel of 8
Procedure: To a standard soy milk (Alpro) was added 100 ppm of N-acetyl glutamic acid. This product was tasted and compared with the original soy milk by a panel of experienced tasters consisting of 8 people (5 men, 3 women aged 35-54).

[14] = Panel of experienced tasters, coffee beverage; assay type: in vivo, people; conditions: 150 ppm in coffee beverage; panel of 8
Procedure: To a coffee beverage (Starbuck's frappucino) was added 150 ppm of N-acetyl glutamic acid. This product was tasted and compared with the original coffee beverage by a panel of experienced tasters consisting of 8 people (5 men, 3 women aged 35-54).

[15] = Panel of experienced tasters, vanilla yoghurt; assay type: in vivo, people; conditions: 100 ppm in vanilla yoghurt; panel of 8
Procedure: To a standard vanilla yoghurt (Campina) was added 100 ppm of N-acetyl glutamic acid. This product was tasted and compared with the original vanilla yoghurt by a panel of experienced tasters consisting of 8 people (5 men, 3 women aged 35-54).

[16] = Expert panel tasting in chicken broth; assay type: in vivo, people; conditions: 100 ppm in chicken broth; panel of 5
Description: Mixture A: A chicken broth Mixture B: The same as A plus 100 ppm of N-acetyl-L-tyrosine

[17] = Expert panel tasting in salt reduced soy sauce; assay type: in vivo; conditions: 0.04 ppm in salt reduced soy sauce
Description: Mixture A: salt reduced Kikkoman soy sauce containing 9% salt Mixture B: same as Mixture A plus 0.04 ppm N-acetyl-methionine

[18] = Expert tasters, beef bouillon tasted warm; assay type: in vivo; conditions: 40 ppb in beef bouillon
Description: Mixture C: commercially available beef bouillon Mixture D: same as Mixture C plus 40 ppb N-acetyl-methionine The soups were tasted warm by a group of expert tasters.

[19] = Expert panel tasting in aqueous solution of 0.5% NaCl, 0.03% MSG and 0.002% ribonucleotides; assay type: in vivo; conditions: 50 ppm in 0.5% NaCl, panel of 5
Description: Mixture A: An aqueous solution of 0.5% NaCl, 0.03% MSG and 0.002%
Ribonucleotides GMP:IMP, ratio 1:1)
Mixture B: The same as A plus50 ppm of N-hexanoyl-L-leucine
Mixture A: An aqueous solution of 0.5% NACl, 0.03% MSG and 0.002%
Ribonucleotides (1:1 GMP, IMP)
Mixture B: The same as A plus 50 ppm of N-pentanoyl-L-phenylalanine

SMILES: CC(=O)NC(CCC(=O)O)C(=O)O (racemic) [N-acetyl-DL-glutamic acid]
- taste description compared to mixture A ([1]; only 150-300 ppm N-acetyl-DL-glutamic acid on top of mixture A): more fullness, depth and aftertaste of cheese

SMILES: CC(=O)NC(C(=O)O)C(C)C (racemic) [N-acetyl-DL-valine]
- taste description of mixture B compared to mixture A ([2]; 10 ppm in 0.5% NaCl): more initially salty
- taste description of mixture D compared to mixture C ([3]; 75 ppm in 0.5% NaCl and 0.03% MSG): more lingering umami and salivating

SMILES: O=CNC(Cc1ccccc1)C(=O)O (racemic) [N-formyl-DL-phenylalanine]
- taste description of mixture B compared to mixture A ([2]; 10 ppm in 0.5% NaCl): more salty
- taste description of mixture D compared to mixture C ([3]; 10 ppm in 0.5% NaCl and 0.03% MSG): more umami

SMILES: CC(=O)N[C@@H](CCC(=O)O)C(=O)O [N-acetyl glutamic acid]
- taste description of mixture B compared to mixture A, effect assigned to the compound [4]: more umami and more lingering savoury
- taste description of mixture B compared to mixture A, effect assigned to the compound [1]: more lingering, and giving fullness, depth and aftertaste of dairy cheese products
- taste description compared with the original product [5]: saltier, creamier, more umami, more body, lingering and mouth-coating
- taste description compared with the original product [6]: more balanced, less sour, fuller, salivating and more lingering
- taste description compared with the original product [7]: more fatty, more creamy, more mouthcoating and gave a better buttery aftertaste
- taste description compared with the original product [8]: more meaty, more succulent, more juicy, more fatty and more expanding in the mouth
- taste description compared with the original product [9]: more salty, more creamy and more full
- taste description compared with the chips without N-Ac-Glu [10]: more salty, more creamy, gave more mouthwatering and had increased cheese intensity
- taste description compared with the original product [11]: less sour, had more body, was more salivating and had a stronger cooked taste
- taste description compared with the original product [12]: slightly less acidic, more syrupy and more smooth
- taste description compared with the original product [13]: slightly more sweet and masked some of the soy off-notes
- taste description compared with the original product [14]: slightly more bitter, had reduced metallic retort notes and had increased carmellic notes
- taste description compared with the original product [15]: less sour, more intense vanilla, more creamy, lingering and had more body

SMILES: CC(=O)N[C@@H](CCC(=O)O)C(=O)O [N-acetyl-L-glutamic acid]
- taste description compared to mixture A ([4]; only 50 -300 ppm N-acetyl-L-glutamic acid on top of mixture A): more umami and more lingering savoury

SMILES: CC[C@H](C)[C@H](NC(C)=O)C(=O)O [N-acetyl-L-isoleucine]
- taste description of mixture B compared to mixture A ([2]; 50 ppm in 0.5% NaCl): more salty
- taste description of mixture D compared to mixture C ([3]; 50 ppm in 0.5% NaCl and 0.03% MSG): more umami

SMILES: CC(=O)N[C@@H](Cc1ccc(O)cc1)C(=O)O [N-acetyl-L-tyrosine]
- taste description of mixture B compared to mixture A [16]: more salty, lingering umami and shows delayed numbing

SMILES: CSCCC(NC(C)=O)C(=O)O (stereo not shown) [N-acetyl-methionine, N-acetyl-methionine (2-acetamido-4-(methylthio)butanoic acid)]
- taste description of mixture B compared to mixture A [17]: more salty and has more upfront salty taste
- taste description of mixture D compared to mixture C [18]: more salty, longer lasting and lifts the garlic component

SMILES: O=CNCC(=O)O [N-formyl glycine]
- taste description of mixture B compared to mixture A, effect assigned to the compound [4]: stronger initial salt spike, was more long-lasting, complex and more succulent
- taste description compared to pure mixture A ([4]; only 50-200 ppm N-formyl-glycine on top of mixture A): more salty, more complex, long lasting and succulent
- taste description of mixture B compared to mixture A, effect assigned to the compound [1]: stronger initial bite, is more salty and more complex
- taste description compared to pure mixture A ([1]; only 50-200 ppm N-formyl glycine on top of mixture A): more bite, more complex note and saltiness

SMILES: NCCCCC(NC=O)C(=O)O [N-formyl-L-lysine, alpha-N-formyl-L-lysine]
- taste description of mixture B compared to mixture A ([3]; 25 ppm in 0.5% NaCl and 0.03% MSG): more umami

SMILES: CCCCCC(=O)N[C@@H](CC(C)C)C(=O)O [N-hexanoyl-L-leucine]
- taste description of mixture B compared to mixture A [19]: more salty and umami

SMILES: CCCCC(=O)N[C@@H](Cc1ccccc1)C(=O)O [N-pentanoyl-L-phenylalanine]
- taste description of mixture B compared to mixture A [19]: more salty and umami
